Results: PMC10649961, “Novel Mitochondria-Targeted Amphiphilic Aminophosphonium Salts and Lipids Nanoparticles: Synthesis, Antitumor Activity and Toxicity” (Nanomaterials, 2023)
Like-named read-outs stand apart in the source and are kept apart here.

What was measured:
[1] = system: Staphylococcus aureus ATCC 6538 P FDA 209P; assay: Antimicrobial activity, serial microdilutions, Sa; format: cell-based; conditions: Staphylococcus aureus; for MIC: read-out: Minimum Inhibitory Concentration (MIC); for MBC: read-out: Minimum bactericidal and fungicidal concentrations (MBC, MFC)
Protocol: (§1) The antimicrobial activity of test compounds was determined by serial microdilutions in 96-well plates using Mueller-Hinton broth for bacterial culture and Sabouraud broth for yeast culture. Cultures of Gram-positive bacteria were used in the experiment: Staphylococcus aureus ATCC 6538 P FDA 209P, Bacillus cereus ATCC 10702 NCTC 8035, Enterococcus faecalis ATCC 29212; Gram-negative bacteria: Escherichia coli ATCC 25922, Pseudomonas aeruginosa ATCC 9027; and yeast: Candida albicans ATCC 10231, purchased from the State Collection of Pathogenic Microorganisms and Cell Cultures “SCPM-Obolensk” (Obolensk, Russia). Methicillin-resistant strains of S. aureus (MRSA) were isolated from patients with chronic tonsillitis (MRSA-1) and sinusitis (MRSA-2) in the bacteriological laboratory of the Republican Clinical Hospital (Kazan, Russia). The experiments were carried out in triplicate.

[2] = system: Bacillus cereus ATCC 10702 NCTC 8035; assay: Antimicrobial activity, serial microdilutions, Bc; format: cell-based; conditions: Bacillus cereus; for MIC: Bc, read-out: Minimum Inhibitory Concentration (MIC); for MBC: read-out: Minimum bactericidal and fungicidal concentrations (MBC, MFC)
Protocol: as §1

[3] = system: Enterococcus faecalis ATCC 29212; assay: Antimicrobial activity, serial microdilutions, Ef; format: cell-based; conditions: Enterococcus faecalis; for MIC: ATCC29212, read-out: Minimum Inhibitory Concentration (MIC); for MBC: ATCC29212, read-out: Minimum bactericidal and fungicidal concentrations (MBC, MFC)
Protocol: as §1

[4] = system: MRSA-1; assay: Antimicrobial activity, serial microdilutions, MRSA-1; format: cell-based, S. aureus; conditions: Staphylococcus aureus; for MIC: read-out: Minimum Inhibitory Concentration (MIC); for MBC: read-out: Minimum bactericidal and fungicidal concentrations (MBC, MFC)
Protocol: as §1

[5] = system: MRSA-2; assay: Antimicrobial activity, serial microdilutions, MRSA-2; format: cell-based, S. aureus; conditions: Staphylococcus aureus; for MIC: read-out: Minimum Inhibitory Concentration (MIC); for MBC: read-out: Minimum bactericidal and fungicidal concentrations (MBC, MFC)
Protocol: as §1

[6] = system: Escherichia coli ATCC 25922; assay: Antimicrobial activity, serial microdilutions, Ec; format: cell-based; conditions: Escherichia coli; for MIC: ATCC25922, read-out: Minimum Inhibitory Concentration (MIC); for MBC: ATCC25922, read-out: Minimum bactericidal and fungicidal concentrations (MBC, MFC)
Protocol: as §1

[7] = system: Pseudomonas aeruginosa ATCC 9027; assay: Antimicrobial activity, serial microdilutions, Pa; format: cell-based; design: key to Minimum Inhibitory Concentration (MIC) / Minimum bactericidal and fungicidal concentrations (MBC, MFC): – means non-active; conditions: for MBC / MIC: Pseudomonas aeruginosa; for MBC: ATCC9027, read-out: Minimum bactericidal and fungicidal concentrations (MBC, MFC); for MIC: ATCC9027, read-out: Minimum Inhibitory Concentration (MIC)
Protocol: as §1

[8] = system: Candida albicans ATCC 10231; assay: Antimicrobial activity, serial microdilutions, Ca; format: cell-based; design: key to Minimum Inhibitory Concentration (MIC) / Minimum bactericidal and fungicidal concentrations (MBC, MFC): – means non-active; conditions: for MIC: read-out: Minimum Inhibitory Concentration (MIC)
Protocol: as §1

[9] = system: M-HeLa
[10] = system: MCF-7
[11] = system: HuTu 80
[12] = system: PANC-1
[13] = system: A549; conditions: reference normal cell line not marked at the place (ns cells)
[14] = system: PC3
[15] = system: T98G
[16] = system: Hep G2
[17] = system: SK-OV-3; conditions: reference normal cell line not marked at the place (ns cells)
[18] = system: DU-145
[19] = system: M-HeLa; assay: cells; conditions: Homo sapiens, 48 h, read-out: Cytotoxic Effects (IC50)
[20] = system: MCF-7; assay: cells; conditions: Homo sapiens, MCF7, 48 h, read-out: Cytotoxic Effects (IC50)
[21] = system: HuTu 80; assay: cells; conditions: Homo sapiens, HuTu80, 48 h, read-out: Cytotoxic Effects (IC50)
[22] = system: PANC-1; assay: cells; conditions: Homo sapiens, PANC-1, 48 h, read-out: Cytotoxic Effects (IC50)
[23] = system: A549; assay: cells; conditions: Homo sapiens, A549, 48 h, read-out: Cytotoxic Effects (IC50)
[24] = system: PC3; assay: cells; conditions: Homo sapiens, PC-3, 48 h, read-out: Cytotoxic Effects (IC50), PC3, MTT assay, 48 h
[25] = system: T98G; assay: cells; conditions: Homo sapiens, 48 h, read-out: Cytotoxic Effects (IC50)
[26] = system: Hep G2; assay: cells; conditions: Homo sapiens, HepG2, 48 h, read-out: Cytotoxic Effects (IC50)
[27] = system: SK-OV-3; assay: cells; conditions: Homo sapiens, SK-OV-3, 48 h, read-out: Cytotoxic Effects (IC50)
[28] = system: DU-145; assay: cells; conditions: Homo sapiens, DU-145, 48 h, read-out: Cytotoxic Effects (IC50), DU-145, MTT assay, 48 h
[29] = calculated relative to the cell line Chang liver (b)
[30] = reference normal cell line not marked at the place (ns cells)
[31] = calculated relative to the cell line WI38 (a)

With CCCCCCCCC[P+](c1ccccc1)(N(CC)CC)N(CC)CC [5c, Bis(diethylamino)(nonyl)(phenyl)phosphonium iodide] the MIC [1] was 3.9 ± 0.3 µM, the MBC [1] was 125 ± 10 µM and the MIC [2] was 3.9 ± 0.3 µM. For the same compound, the MBC [2] was 500 ± 48 µM, the MIC [3] was 31.3 ± 2.2 µM and the MBC [3] was 500 ± 48 µM. For the same compound, the MIC [4] was 3.9 ± 0.3 µM, the MBC [4] was 62.5 ± 5.5 µM and the MIC [5] was 3.9 ± 0.4 µM. For the same compound, the MBC [5] was 62.5 ± 5.4 µM, the MIC [6] was 250 ± 19 µM and the MBC [6] was 500 ± 48 µM. For the same compound, the “Minimum Inhibitory Concentration (MIC)” value [7] was “–”, the MBC [7] was > 500 µM and the “Minimum Inhibitory Concentration (MIC)” value ([8]; Ca) was “–”. The “Minimum bactericidal and fungicidal concentrations (MBC, MFC)” value ([8]; Ca) was “–”, the “selectivity index (SI)” value [9, 29] was 2.4 and the “selectivity index (SI)” value [10, 29] was 1.3. For the same compound, the “selectivity index (SI)” value [11, 29] was 1.5, the “selectivity index (SI)” value [12, 29] was 1.5 and the “selectivity index (SI)” value [13] was “ns (ns—no selectivity)”. For the same compound, the “selectivity index (SI)” value [14, 30] was “ns (ns—no selectivity)”, the “selectivity index (SI)” value [15, 29] was 1.5 and the “selectivity index (SI)” value [16, 29] was 1.8. For the same compound, the “selectivity index (SI)” value [17] was “ns (ns—no selectivity)”, the “selectivity index (SI)” value [18, 29] was 4.6 and the IC50 [19] was 1700 ± 100 nM. It also gave an IC50 [20] of 3100 ± 200 nM, an IC50 [21] of 2800 ± 300 nM and an IC50 [22] of 2800 ± 200 nM. The IC50 [23] was 8.7 ± 0.7 µM, the IC50 [24] was 10000 ± 900 nM and the IC50 [25] was 2700 ± 300 nM. For the same compound, the IC50 [26] was 2300 ± 100 nM, the IC50 [27] was 14.8 ± 1.2 µM and the IC50 [28] was 900 ± 70 nM.

CCCCCCCCCC[P+](c1ccccc1)(N(CC)CC)N(CC)CC [5d, Decylbis(diethylamino)(phenyl)phosphonium iodide] was tested, and the MIC [1] was 0.9 ± 0.07 µM, the MBC [1] was 125 ± 9 µM and the MIC [2] was 0.9 ± 0.08 µM. For the same compound, the MBC [2] was 500 ± 47 µM, the MIC [3] was 15.6 ± 1.2 µM and the MBC [3] was 125 ± 9 µM. It also gave an MIC [4] of 0.9 ± 0.08 µM, an MBC [4] of 125 ± 11 µM and an MIC [5] of 0.9 ± 0.08 µM. The MBC [5] was 62.5 ± 5.2 µM, the MIC [6] was 62.5 ± 5.4 µM and the MBC [6] was 62.5 ± 5.3 µM. For the same compound, the MIC [7] was 500 ± 48 µM, the MBC [7] was 500 ± 47 µM and the “Minimum bactericidal and fungicidal concentrations (MBC, MFC)” value ([8]; Ca) was “–”. For the same compound, the MIC ([8]; Candida albicans, ATCC10231) was 250 ± 21 µM, the “selectivity index (SI)” value [9, 30] was “ns (ns—no selectivity)” and the “selectivity index (SI)” value [10, 29] was 1.9. For the same compound, the “selectivity index (SI)” value [11, 30] was “ns (ns—no selectivity)”, the “selectivity index (SI)” value [12, 30] was “ns (ns—no selectivity)” and the “selectivity index (SI)” value [13] was “ns (ns—no selectivity)”. The “selectivity index (SI)” value [14, 29] was 1.6, the “selectivity index (SI)” value [15, 29] was 1.9 and the “selectivity index (SI)” value [16, 29] was 1.2. For the same compound, the “selectivity index (SI)” value [17] was “ns (ns—no selectivity)”, the “selectivity index (SI)” value [18, 29] was 2.9 and the IC50 [19] was 1500 ± 100 nM. It also gave an IC50 [20] of 700 ± 60 nM, an IC50 [21] of 2500 ± 100 nM and an IC50 [22] of 1400 ± 100 nM. For the same compound, the IC50 [23] was 8.9 ± 0.7 µM, the IC50 [24] was 800 ± 60 nM and the IC50 [25] was 700 ± 50 nM. For the same compound, the IC50 [26] was 1100 ± 90 nM, the IC50 [27] was 10 ± 0.8 µM and the IC50 [28] was 450 ± 30 nM.

For CCCCCCCCCC[P+](c1ccccc1)(c1ccccc1)N(CC)CC [6d, Decyl(diethylamino)diphenylphosphonium iodide], the MIC [1] was 0.9 ± 0.08 µM, the MBC [1] was 62.5 ± 5.4 µM and the MIC [2] was 0.9 ± 0.08 µM. It also gave an MBC [2] of 250 ± 21 µM, an MIC [3] of 3.9 ± 0.3 µM and an MBC [3] of 250 ± 19 µM. It also gave an MIC [4] of 0.5 ± 0.03 µM, an MBC [4] of 0.9 ± 0.07 µM and an MIC [5] of 0.5 ± 0.03 µM. It also gave an MBC [5] of 0.9 ± 0.08 µM, an MIC [6] of 62.5 ± 5.3 µM and an MBC [6] of 62.5 ± 5.5 µM. The MIC [7] was 125 ± 10 µM, the MBC [7] was 125 ± 9 µM and the MIC ([8]; Candida albicans, ATCC10231) was 62.5 ± 5.4 µM. The MBC ([8]; Candida albicans, ATCC10231, read-out: Minimum bactericidal and fungicidal concentrations (MBC, MFC)) was 250 ± 19 µM, the “selectivity index (SI)” value [9, 31] was 1.6 and the “selectivity index (SI)” value [10, 30] was “ns (ns—no selectivity)”. For the same compound, the “selectivity index (SI)” value [11, 31] was 1.1, the “selectivity index (SI)” value [12, 31] was 1.0 and the “selectivity index (SI)” value [13] was “ns (ns—no selectivity)”. The “selectivity index (SI)” value [14, 30] was “ns (ns—no selectivity)”, the “selectivity index (SI)” value [15, 30] was “ns (ns—no selectivity)” and the “selectivity index (SI)” value [16, 30] was “ns (ns—no selectivity)”. For the same compound, the “selectivity index (SI)” value [17] was “ns (ns—no selectivity)”, the “selectivity index (SI)” value [18, 31] was 1.0 and the IC50 [19] was 240 ± 20 nM. The IC50 [20] was 1600 ± 100 nM, the IC50 [21] was 350 ± 20 nM and the IC50 [22] was 400 ± 30 nM. It also gave an IC50 [23] of 8.2 ± 0.7 µM, an IC50 [24] of 1400 ± 100 nM and an IC50 [25] of 600 ± 50 nM. The IC50 [26] was 1300 ± 100 nM, the IC50 [27] was 3.9 ± 0.4 µM and the IC50 [28] was 430 ± 30 nM.
